Experimental data reported in US20020106347A1, “Cytokines and their use in treatment and/or prophylaxis of breast cancer” (priority 1995, published 2002).

What was measured:
Format in all cases: cell-based, human
[1] = system: MCF-7 cells; experiment: Northern analysis of mRNA expression after OSM; conditions: OSM 10 ng/ml
Description: (§1) FIG. 12 is a photographic representation showing effect of OSM on the expression of Transforming Growth Factor α (TGFα), Epidemal Growth Factor Receptor (EGFR), Prolactin Receptor (PRLR), Estrogen Receptor (ER) and LIF mRNA. Cells growing in the presence of 10% (v/v) BCS were treated with OSM (10 ng/ml) and at the indicated time points duplicate 150 cm^2 flasks were harvested and mRNA extracted for Northern analysis. Results for control cells (C) are also shown. The same filter has been probed successively with a ^32P-labelled cDNA corresponding to each mRNA species. mRNA loading was evaluated by reprobing the filter with a fragment complementary to GAPDH. mRNA species of the following sizes were obtained: TGFα, 4.8 kb; PRLR, 10.5 and 8.6 kb; EGFR, 10.5 and 5.8 kb; ER, 6.5 and 3.8 kb and LIF, approx. 4.8 kb.
Cells havested from duplicate flasks were pooled and poly A+ mRNA extracted by an oligo-dT cellulose procedure (Boehringer Mannheim). Northern analysis was performed using 5 μg RNA per lane. Membranes (Hybond-C extra-Amersham) were hybridised (42° C. overnight) with probes labelled with α-^32P dCTP (bresatec). The membranes were washed at a stringency of 0.2× SSC (30 mM NaCl, 3 mM sodium citrate, pH 7.0)-0.1% (w/v) sodium dodecyl sulfate at 65° C. and exposed to Kodak X-Omat film at −70° C. mRNA loading was estimated by hybridising membranes with a 1.3 kb cDNA complementary to GAPDH.
as §1, with “Cells” for “FIG. 12 is a photographic representation showing effect of OSM on the expression of Transforming Growth Factor α (TGFα), Epidemal Growth Factor Receptor (EGFR), Prolactin Receptor (PRLR), Estrogen Receptor (ER) and LIF mRNA. Cells”

[2] = system: ER in MCF-7 cells; experiment: ER expression by antibody staining on chamber slides; conditions: MCF-7, 6 days
Description: (§2) MCF-7 cells were grown on chamber slides for 6 days in RPMI/10% (v/v) BCS with the following growth factors, prior to being stained with an antibody specific for ER. […] Cells stained brown indicate ER positivity.
as §2

[3] = system: MDA-MB-231 cells; experiment: Cell morphology after exposure to OSM; conditions: MDA-MB-231 exposed to OSM
Description: FIG. 15 is a photographic representation showing cell morphology after exposure to OSM. MCF-7 cells from control cultures (Panel A) and appearance of cells after culture for 14 days in OSM (10 ng/ml) (Panel B). MDA-MB-231 cells from control cultures (Panel C) and appearance of cells after culture for 7 days in OSM (Panel D).
The action of IL-6, LIF, OSM CNTF and IL-11 was examined on 4 breast cancer cell lines grown in monolayer culture. Striking changes in the morphology of cells were observed. FIG. 15 compares morphology of untreated cells with cells exposed to OSM. […] This was associated with the appearance of decreased intercellular adhesion or cellular contraction. These changes were quite marked by day 14.

[4] = from 2 hours, maintained for 48 hours

## oncostatin M [OSM]
[1]
  abundance of TGFα transcript (in words): equivalent to control cells
  level of LIF transcript (in words): upregulates
[1]; between 4-12 hours
  elevation of EGFR mRNA abundance: at least 5 fold
[1]; [4]
  level of expression of Estrogen Receptor (ER) mRNA (in words): down regulate
  level of expression of Prolactin Receptor (PRLR) mRNA (in words): down regulate
[2]
  cells staining very weakly for ER: 50%
[3]
  cell morphology (in words): Transformation to a fibroblastic phenotype
